For assay [1], the target named is Fibroblast growth factor receptor 3 (Homo sapiens) (UniProt P22607). The assay is described as follows: Inhibition of human FGFR3 catalytic domain expressed in baculovirus assessed as substrate phosphorylation using fluorescence-labelled peptides as substrate at 8 uM after 90 mins by microfluidic peptide phosphorylation assay.
Assay [2] addresses T1, MAP kinase-activated protein kinase 5 (Homo sapiens) (UniProt Q8IW41).
T1 sequence (whole entry): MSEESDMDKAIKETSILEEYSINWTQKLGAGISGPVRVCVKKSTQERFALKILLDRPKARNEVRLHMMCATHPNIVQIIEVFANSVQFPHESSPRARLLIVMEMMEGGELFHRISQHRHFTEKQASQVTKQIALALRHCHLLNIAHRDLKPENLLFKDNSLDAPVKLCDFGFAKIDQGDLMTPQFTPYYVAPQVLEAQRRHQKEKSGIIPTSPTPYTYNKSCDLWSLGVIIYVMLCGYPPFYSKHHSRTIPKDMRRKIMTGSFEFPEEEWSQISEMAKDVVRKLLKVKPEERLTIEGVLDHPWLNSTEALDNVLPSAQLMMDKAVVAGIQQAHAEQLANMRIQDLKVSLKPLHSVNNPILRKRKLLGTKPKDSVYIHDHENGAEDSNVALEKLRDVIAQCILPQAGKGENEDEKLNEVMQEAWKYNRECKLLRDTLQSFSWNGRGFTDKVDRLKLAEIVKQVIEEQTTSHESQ
Briefly: Inhibition of human full length PRAK expressed in baculovirus assessed as substrate phosphorylation using fluorescence-labelled peptides as substrate at 420 uM after 90 mins by microfluidic peptide phosphorylation assay.

Assay [3] concerns the target Serine/threonine-protein kinase MARK1 (Homo sapiens) (UniProt Q9P0L2). The settings on record: 0.1 uM.
Description: Inhibition of human full length MARK1 expressed in baculovirus assessed as substrate phosphorylation using fluorescence-labelled peptides as substrate at 0.1 uM after 90 mins by microfluidic peptide phosphorylation assay
The target of assay [4] is RAF proto-oncogene serine/threonine-protein kinase (Homo sapiens) (UniProt P04049). Briefly: Inhibition of human truncated c-Raf expressed in baculovirus assessed as substrate phosphorylation using fluorescence-labelled peptides as substrate at 0.06 uM after 90 mins by microfluidic peptide phosphorylation assay.
Assay [5] concerns the target T2, Protein kinase C epsilon type (Homo sapiens) (UniProt Q02156).
T2 sequence (whole entry): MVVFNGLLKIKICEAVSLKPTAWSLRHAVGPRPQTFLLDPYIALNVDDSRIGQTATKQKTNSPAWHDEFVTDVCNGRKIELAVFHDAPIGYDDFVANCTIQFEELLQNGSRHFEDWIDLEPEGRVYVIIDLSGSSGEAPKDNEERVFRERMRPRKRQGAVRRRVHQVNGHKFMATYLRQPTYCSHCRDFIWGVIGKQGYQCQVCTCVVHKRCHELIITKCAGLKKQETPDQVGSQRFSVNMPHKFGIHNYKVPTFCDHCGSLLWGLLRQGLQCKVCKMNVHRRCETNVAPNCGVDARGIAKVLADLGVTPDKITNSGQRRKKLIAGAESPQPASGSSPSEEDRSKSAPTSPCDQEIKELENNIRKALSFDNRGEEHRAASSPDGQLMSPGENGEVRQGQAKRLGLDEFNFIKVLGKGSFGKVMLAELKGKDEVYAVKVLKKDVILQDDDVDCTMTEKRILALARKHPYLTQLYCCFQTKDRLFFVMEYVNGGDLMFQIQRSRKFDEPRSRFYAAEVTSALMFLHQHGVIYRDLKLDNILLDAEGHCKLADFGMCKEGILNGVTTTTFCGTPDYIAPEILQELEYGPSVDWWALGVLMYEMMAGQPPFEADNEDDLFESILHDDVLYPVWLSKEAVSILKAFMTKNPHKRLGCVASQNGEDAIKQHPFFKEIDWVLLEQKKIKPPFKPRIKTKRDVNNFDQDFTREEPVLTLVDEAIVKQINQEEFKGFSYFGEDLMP
The assay is described as follows: Inhibition of human truncated PKC epsilon expressed in baculovirus assessed as substrate phosphorylation using fluorescence-labelled peptides as substrate at 2 uM after 90 mins by microfluidic peptide phosphorylation assay.

The target of assay [6] is Mitogen-activated protein kinase 1 (Homo sapiens) (UniProt P28482). Briefly: Inhibition of human full length ERK2 expressed in Escherichia coli cell assessed as substrate phosphorylation using fluorescence-labelled peptides as substrate at 95 uM after 90 mins by microfluidic peptide phosphorylation assay.
Assay [7] concerns the target T3, cGMP-dependent protein kinase 1 (Homo sapiens) (UniProt Q13976).
T3 sequence (whole entry): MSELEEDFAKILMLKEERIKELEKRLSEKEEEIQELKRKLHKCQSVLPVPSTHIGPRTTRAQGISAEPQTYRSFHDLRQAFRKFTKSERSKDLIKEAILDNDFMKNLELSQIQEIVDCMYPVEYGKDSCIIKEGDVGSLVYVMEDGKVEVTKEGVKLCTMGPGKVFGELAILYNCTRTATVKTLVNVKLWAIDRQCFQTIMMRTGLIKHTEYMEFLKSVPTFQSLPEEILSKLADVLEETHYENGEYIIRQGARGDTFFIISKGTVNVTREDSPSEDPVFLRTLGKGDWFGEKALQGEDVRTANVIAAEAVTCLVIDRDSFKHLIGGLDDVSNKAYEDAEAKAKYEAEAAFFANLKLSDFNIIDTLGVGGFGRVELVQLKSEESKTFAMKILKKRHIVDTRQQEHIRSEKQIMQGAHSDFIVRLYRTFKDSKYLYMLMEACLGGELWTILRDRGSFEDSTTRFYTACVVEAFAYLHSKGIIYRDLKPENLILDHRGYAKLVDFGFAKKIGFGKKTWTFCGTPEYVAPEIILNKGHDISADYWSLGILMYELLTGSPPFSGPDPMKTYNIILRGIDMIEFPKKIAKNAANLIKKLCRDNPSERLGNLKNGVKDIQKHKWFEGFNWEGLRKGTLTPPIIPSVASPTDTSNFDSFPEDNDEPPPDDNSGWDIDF
Briefly: Inhibition of human full length PKG-1beta expressed in baculovirus assessed as substrate phosphorylation using fluorescence-labelled peptides as substrate at 1000 uM after 90 mins by microfluidic peptide phosphorylation assay.

Assay [8] addresses T3, cGMP-dependent protein kinase 1 (Homo sapiens). The assay is described as follows: Inhibition of human full length PKG-1a expressed in baculovirus assessed as substrate phosphorylation using fluorescence-labelled peptides as substrate at […] after 90 mins by microfluidic peptide phosphorylation assay.

Each structure is given as a SMILES string.

From ChEMBL document CHEMBL3132769, “Fragment growing to retain or alter the selectivity of anchored kinase hinge-binding fragments” (Medchemcomm, 2014) come the findings set out here.

In general, inhibition refers to the relative decrease from the control value, in per cent.

Chain of Fibroblast growth factor receptor 3 (Homo sapiens) (P22607 23-806 limits assumed): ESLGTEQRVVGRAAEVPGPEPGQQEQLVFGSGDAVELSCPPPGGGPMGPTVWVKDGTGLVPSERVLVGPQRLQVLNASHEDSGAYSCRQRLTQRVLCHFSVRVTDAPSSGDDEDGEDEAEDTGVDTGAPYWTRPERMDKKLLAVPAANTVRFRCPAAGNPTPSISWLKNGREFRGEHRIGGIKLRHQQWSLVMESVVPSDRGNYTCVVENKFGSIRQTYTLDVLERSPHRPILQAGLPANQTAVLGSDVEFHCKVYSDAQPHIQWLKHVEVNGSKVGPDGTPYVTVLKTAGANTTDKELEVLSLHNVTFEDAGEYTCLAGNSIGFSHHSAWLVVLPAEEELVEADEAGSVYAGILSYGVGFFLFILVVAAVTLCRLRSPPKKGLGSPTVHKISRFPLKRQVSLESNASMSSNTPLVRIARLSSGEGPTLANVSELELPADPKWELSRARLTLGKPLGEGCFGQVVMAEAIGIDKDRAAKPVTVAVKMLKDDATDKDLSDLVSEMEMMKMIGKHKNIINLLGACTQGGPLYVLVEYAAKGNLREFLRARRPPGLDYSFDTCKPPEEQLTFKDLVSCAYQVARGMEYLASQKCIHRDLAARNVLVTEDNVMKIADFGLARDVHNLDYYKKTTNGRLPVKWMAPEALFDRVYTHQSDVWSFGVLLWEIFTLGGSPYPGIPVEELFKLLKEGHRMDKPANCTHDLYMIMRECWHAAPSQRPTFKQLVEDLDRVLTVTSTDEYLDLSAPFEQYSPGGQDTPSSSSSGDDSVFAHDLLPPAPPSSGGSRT
Chain of Mitogen-activated protein kinase 1 (Homo sapiens) (P28482 whole entry): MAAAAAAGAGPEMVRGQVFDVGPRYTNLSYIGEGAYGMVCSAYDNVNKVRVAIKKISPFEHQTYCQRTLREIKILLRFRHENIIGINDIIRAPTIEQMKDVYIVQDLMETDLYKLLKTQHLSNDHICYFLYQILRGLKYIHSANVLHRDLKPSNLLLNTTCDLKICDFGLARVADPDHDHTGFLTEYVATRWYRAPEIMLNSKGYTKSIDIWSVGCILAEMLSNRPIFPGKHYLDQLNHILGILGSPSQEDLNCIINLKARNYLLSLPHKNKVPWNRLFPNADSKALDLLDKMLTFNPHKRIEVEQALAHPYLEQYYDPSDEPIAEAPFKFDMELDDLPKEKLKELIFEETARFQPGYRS
Chain of RAF proto-oncogene serine/threonine-protein kinase (Homo sapiens) (P04049 whole entry, the tested form may be a part): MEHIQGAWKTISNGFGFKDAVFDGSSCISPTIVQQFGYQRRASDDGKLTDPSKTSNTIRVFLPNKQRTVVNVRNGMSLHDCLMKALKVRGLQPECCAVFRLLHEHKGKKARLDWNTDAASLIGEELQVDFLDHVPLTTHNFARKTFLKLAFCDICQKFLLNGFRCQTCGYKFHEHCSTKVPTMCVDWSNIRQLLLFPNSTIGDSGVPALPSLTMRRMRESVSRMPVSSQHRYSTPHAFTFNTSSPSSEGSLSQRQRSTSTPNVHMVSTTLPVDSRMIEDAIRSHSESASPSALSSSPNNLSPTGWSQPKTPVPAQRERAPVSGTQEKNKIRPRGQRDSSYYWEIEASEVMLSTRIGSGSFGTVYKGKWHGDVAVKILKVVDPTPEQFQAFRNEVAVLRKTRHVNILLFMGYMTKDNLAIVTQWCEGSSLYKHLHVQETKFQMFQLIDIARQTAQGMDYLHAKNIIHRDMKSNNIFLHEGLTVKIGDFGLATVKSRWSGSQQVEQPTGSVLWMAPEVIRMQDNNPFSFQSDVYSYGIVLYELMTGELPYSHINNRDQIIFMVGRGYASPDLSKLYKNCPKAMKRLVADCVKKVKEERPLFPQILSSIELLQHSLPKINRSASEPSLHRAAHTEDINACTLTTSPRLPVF
Chain of Serine/threonine-protein kinase MARK1 (Homo sapiens) (Q9P0L2 whole entry, looked up, the tested form may be a part): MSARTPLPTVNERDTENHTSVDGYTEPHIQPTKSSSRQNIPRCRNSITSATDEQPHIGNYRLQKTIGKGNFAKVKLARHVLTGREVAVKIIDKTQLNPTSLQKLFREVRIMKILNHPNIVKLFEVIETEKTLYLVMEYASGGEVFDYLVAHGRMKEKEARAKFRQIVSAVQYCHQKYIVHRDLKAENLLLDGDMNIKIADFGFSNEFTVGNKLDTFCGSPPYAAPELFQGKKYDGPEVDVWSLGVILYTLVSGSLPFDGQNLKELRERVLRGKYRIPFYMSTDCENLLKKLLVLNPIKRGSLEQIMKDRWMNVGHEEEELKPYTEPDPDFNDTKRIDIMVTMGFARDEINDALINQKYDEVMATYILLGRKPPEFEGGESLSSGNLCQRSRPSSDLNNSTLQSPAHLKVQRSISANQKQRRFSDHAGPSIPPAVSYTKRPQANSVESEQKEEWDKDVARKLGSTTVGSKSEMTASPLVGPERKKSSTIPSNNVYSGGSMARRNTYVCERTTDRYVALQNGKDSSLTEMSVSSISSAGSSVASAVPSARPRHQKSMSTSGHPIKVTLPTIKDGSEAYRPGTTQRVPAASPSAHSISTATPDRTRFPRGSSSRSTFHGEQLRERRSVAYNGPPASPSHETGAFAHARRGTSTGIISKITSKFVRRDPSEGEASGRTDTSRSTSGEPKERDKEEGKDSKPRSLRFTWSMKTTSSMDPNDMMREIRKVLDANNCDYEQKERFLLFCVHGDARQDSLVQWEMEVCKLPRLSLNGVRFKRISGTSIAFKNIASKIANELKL

On to `NCC1CCN(c2ncnc3[nH]ccc23)CC1`, for which the inhibition in assay [1] is 0.5%.

For `c1nc(N2CCOCC2)c2nc[nH]c2n1`, the inhibition in assay [2] came out at 40%.

Compound `C[C@H](CN(C)C)Oc1nc(Nc2cc3cccc(Cl)c3cn2)cnc1C#N` gave an inhibition in assay [3] of 0%.

Consider `NC1(Cc2ccc(Cl)cc2)CCN(c2ncnc3[nH]ccc23)CC1`, for which, in assay [4], the inhibition is 3.5%.

In the case of `NC1CCN(c2ncnc3[nH]ccc23)CC1`, in assay [5], the inhibition amounted to 2.5%.

Turning to `NCCc1ccc(-c2ncnc3[nH]cnc23)cc1`, in assay [6], the inhibition was determined as 55.5%.

Regarding `c1cnc2[nH]ccc2c1`, the inhibition in assay [7] is 87%.

For the compound `COC(=O)c1cnc(Nc2cnc(C#N)cn2)cc1NCC1CCNCC1`, in assay [8], the inhibition stood at 4.5%.
